Molecules are shown by their SMILES.

The target of the test is ATX (human His-tagged) (Homo sapiens (Human), UniProt Q13822). Description: Human ATX enzyme inhibition assay (fluorescence quenching, MR121 substrate). Format: biochemical. Particulars: inhibitory activity against ATX; 30 nM ATX, 1 μM MR121 substrate, 30° C. As to the method:
Human ATX Enzyme Inhibition Assay
ATX inhibition was measured by a fluorescence quenching assay using a specifically labeled substrate analogue (MR121 substrate). To obtain this MR121 substrate, BOC and TBS protected 6-amino-hexanoic acid (R)-3-({2-[3-(2-{2-[2-(2-amino-ethoxy)-ethoxy]-ethoxy}-ethoxy)-propionylamino]-ethoxy}-hydroxy-phosphoryloxy)-2-hydroxy-propyl ester (Ferguson et al., Org Lett 2006, 8 (10), 2023) was labeled with MR121 fluorophore (CAS 185308-24-1, 1-(3-carboxypropyl)-11-ethyl-1,2,3,4,8,9,10,11-octahydro-dipyrido[3,2-b:2′,3′-i]phenoxazin-13-ium) on the free amine of the ethanolamine side and then, after deprotection, subsequently with tryptophan on the side of the aminohexanoic acid.
Assay working solutions were made as follows:
Assay buffer (50 mM Tris-HCl, 140 mM NaCl, 5 mM KCl, 1 mM CaCl2, 1 mM MgCl2, 0.01% Triton-X-100, pH 8.0;
ATX solution: ATX (human His-tagged) stock solution (1.08 mg/mL in 20 mM bicine, pH 8.5, 0.15 M NaCl, 10% glycerol, 0.3% CHAPS, 0.02% NaN3), diluted to 1.4-2.5× final concentration in assay buffer;
MR121 substrate solution: MR121 substrate stock solution (800 μM MR121 substrate in DMSO), diluted to 2-5× final concentration in assay buffer.
Test compounds (10 mM stock in DMSO, 8 μL) were obtained in 384 well sample plates (Corning Costar #3655) and diluted with 8 μL DMSO. Row-wise serial dilutions were made by transferring 8 μL cpd solution to the next row up to […]. The compound and control solutions were mixed five times and 2 μL were transferred to 384 well assay plates (Corning Costar #3702). Then, 15 μL of 41.7 nM ATX solution was added (30 nM final concentration), mixed five times and then incubated for 15 minutes at 30° C. 10 μL of MR121 substrate solution was added (1 μM final concentration), mixed 30 times and then incubated for 15 minutes at 30° C. Fluorescence was then measured every 2 minutes for 1 hour (Perkin Elmer plate: vision multimode reader); light intensity: 2.5%; exp. time: 1.4 sec, Filter: Fluo_630/690 nm) and IC50 values were calculated from these readouts.
`O=C(OCc1ccccc1)N1CCc2cc(C(=O)N3CCc4[nH]nnc4C3)nn2CC1` [Example 1, Benzyl 2-(1,4,6,7-tetrahydrotriazolo[4,5-c]pyridine-5-carbonyl)-4,5,7,8-tetrahydropyrazolo[1,5-d][1,4]diazepine-6-carboxylate] registered a half-maximal inhibitory concentration (IC50) of 158 nM. Under `O=C(OCc1ccccc1)N1CCc2nc(C(=O)N3CCc4[nH]nnc4C3)cn2CC1` [Example 2, Benzyl 2-(1,4,6,7-tetrahydrotriazolo[4,5-c]pyridine-5-carbonyl)-5,6,8,9-tetrahydroimidazo[1,2-d][1,4]diazepine-7-carboxylate] stands 2010 nM; under `O=C(OCc1ccc(OC(F)(F)F)c(F)c1)N1CCc2cc(C(=O)N3CCc4[nH]nnc4C3)nn2CC1` [Example 3, [3-Fluoro-4-(trifluoromethoxy)phenyl]methyl 2-(1,4,6,7-tetrahydrotriazolo[4,5-c]pyridine-5-carbonyl)-4,5,7,8-tetrahydropyrazolo[1,5-d][1,4]diazepine-6-carboxylate], 18 nM; under `O=C(OCc1ccc(OC(F)(F)F)cc1F)N1CCc2cc(C(=O)N3CCc4[nH]nnc4C3)nn2CC1` [Example 4, 2-Fluoro-4-(trifluoromethoxy)benzyl 2-(4,5,6,7-tetrahydro-1H-[1,2,3]triazolo[4,5-c]pyridine-5-carbonyl)-7,8-dihydro-4H-pyrazolo[1,5-d][1,4]diazepine-6(5H)-carboxylate], 7 nM. Under `O=C(OCc1ccc(OC(F)(F)F)cc1)N1CCc2cc(C(=O)N3CCc4[nH]nnc4C3)nn2CC1` [Example 5, [4-(Trifluoromethoxy)phenyl]methyl 2-(1,4,6,7-tetrahydrotriazolo[4,5-c]pyridine-5-carbonyl)-4,5,7,8-tetrahydropyrazolo[1,5-d][1,4]diazepine-6-carboxylate] stands 2 nM; under `N#Cc1ccc(COC(=O)N2CCc3cc(C(=O)N4CCc5[nH]nnc5C4)nn3CC2)cc1` [Example 6, 4-Cyanobenzyl 2-(4,5,6,7-tetrahydro-1H-[1,2,3]triazolo[4,5-c]pyridine-5-carbonyl)-7,8-dihydro-4H-pyrazolo[1,5-d][1,4]diazepine-6(5H)-carboxylate], 4 nM; under `N#Cc1ccc(COC(=O)N2CCc3cc(C(=O)N4CCc5[nH]nnc5C4)nn3CC2)cc1F` [Example 7, 4-Cyano-3-fluorobenzyl 2-(4,5,6,7-tetrahydro-1H-[1,2,3]triazolo[4,5-c]pyridine-5-carbonyl)-7,8-dihydro-4H-pyrazolo[1,5-d][1,4]diazepine-6(5H)-carboxylate], 70 nM. Under `N#Cc1ccc(COC(=O)N2CCc3cc(C(=O)N4CCc5[nH]nnc5C4)nn3CC2)c(F)c1` [Example 8, 4-Cyano-2-fluorobenzyl 2-(4,5,6,7-tetrahydro-1H-[1,2,3]triazolo[4,5-c]pyridine-5-carbonyl)-7,8-dihydro-4H-pyrazolo[1,5-d][1,4]diazepine-6(5H)-carboxylate] stands 60 nM; under `CC(C)c1cc(C#N)ccc1COC(=O)N1CCc2cc(C(=O)N3CCc4[nH]nnc4C3)nn2CC1` [Example 9, (4-Cyano-2-propan-2-ylphenyl)methyl 2-(1,4,6,7-tetrahydrotriazolo[4,5-c]pyridine-5-carbonyl)-4,5,7,8-tetrahydropyrazolo[1,5-d][1,4]diazepine-6-carboxylate], 6 nM.

`CC(C)(C)C(=O)Nc1cc(C#N)ccc1COC(=O)N1CCc2cc(C(=O)N3CCc4[nH]nnc4C3)nn2CC1` [Example 10, [4-Cyano-2-(2,2-dimethylpropanoylamino)phenyl]methyl 2-(1,4,6,7-tetrahydrotriazolo[4,5-c]pyridine-5-carbonyl)-4,5,7,8-tetrahydropyrazolo[1,5-d][1,4]diazepine-6-carboxylate] yielded an IC50 of 18 nM. Compound `O=C(OCc1ccc(OC(F)(F)F)cc1)N1CCc2nc(C(=O)N3CCc4[nH]nnc4C3)nn2CC1` [Example 11, [4-(Trifluoromethoxy)phenyl]methyl 2-(1,4,6,7-tetrahydrotriazolo[4,5-c]pyridine-5-carbonyl)-5,6,8,9-tetrahydro-[1,2,4]triazolo[1,5-d][1,4]diazepine-7-carboxylate] showed an IC50 of 15 nM. As for `CC(C)(C)C(=O)Nc1cc(C#N)ccc1COC(=O)N1CCc2nc(C(=O)N3CCc4[nH]nnc4C3)nn2CC1` [Example 12, [4-Cyano-2-(2,2-dimethylpropanoylamino)phenyl]methyl 2-(1,4,6,7-tetrahydrotriazolo[4,5-c]pyridine-5-carbonyl)-5,6,8,9-tetrahydro-[1,2,4]triazolo[1,5-d][1,4]diazepine-7-carboxylate], the figure is 67 nM; as for `O=C(OCc1ccc(OC(F)(F)F)cc1)N1CCc2nc(C(=O)N3CCc4[nH]nnc4C3)cn2CC1` [Example 13, [4-(Trifluoromethoxy)phenyl]methyl 2-(1,4,6,7-tetrahydrotriazolo[4,5-c]pyridine-5-carbonyl)-5,6,8,9-tetrahydroimidazo[1,2-d][1,4]diazepine-7-carboxylate], 17 nM. `O=C(CCc1ccc(OC(F)(F)F)cc1)N1CCc2cc(C(=O)N3CCc4[nH]nnc4C3)nn2CC1` [Example 14, 1-[2-(1,4,6,7-tetrahydrotriazolo[4,5-c]pyridine-5-carbonyl)-4,5,7,8-tetrahydropyrazolo[1,5-d][1,4]diazepin-6-yl]-3-[4-(trifluoromethoxy)phenyl]propan-1-one] gave an IC50 of 14 nM. Under `N#Cc1ccc(OCC(=O)N2CCc3cc(C(=O)N4CCc5[nH]nnc5C4)nn3CC2)c(C2CC2)c1` [Example 15, 3-Cyclopropyl-4-(2-oxo-2-(2-(4,5,6,7-tetrahydro-1H-[1,2,3]triazolo[4,5-c]pyridine-5-carbonyl)-7,8-dihydro-4H-pyrazolo[1,5-d][1,4]diazepin-6(5H)-yl)ethoxy)benzonitrile] stands 11 nM; under `CCc1cc(C#N)ccc1OCC(=O)N1CCc2cc(C(=O)N3CCc4[nH]nnc4C3)nn2CC1` [Example 16, 3-Ethyl-4-(2-oxo-2-(2-(4,5,6,7-tetrahydro-1H-[1,2,3]triazolo[4,5-c]pyridine-5-carbonyl)-7,8-dihydro-4H-pyrazolo[1,5-d][1,4]diazepin-6(5H)-yl)ethoxy)benzonitrile], 12 nM; under `CC(C)(C)c1cc(C#N)ccc1OCC(=O)N1CCc2cc(C(=O)N3CCc4[nH]nnc4C3)nn2CC1` [Example 17, 3-tert-Butyl-4-[2-oxo-2-[2-(1,4,6,7-tetrahydrotriazolo[4,5-c]pyridine-5-carbonyl)-4,5,7,8-tetrahydropyrazolo[1,5-d][1,4]diazepin-6-yl]ethoxy]benzonitrile], 10 nM.

Consider `O=C(CCc1ccc(OC(F)(F)F)c(F)c1)N1CCc2cc(C(=O)N3CCc4[nH]nnc4C3)nn2CC1` [Example 18, 3-[3-fluoro-4-(trifluoromethoxy)phenyl]-1-[2-(1,4,6,7-tetrahydrotriazolo[4,5-c]pyridine-5-carbonyl)-4,5,7,8-tetrahydropyrazolo[1,5-d][1,4]diazepin-6-yl]propan-1-one], for which the IC50 amounted to 13 nM. As for `COc1ccc(CCC(=O)N2CCc3cc(C(=O)N4CCc5[nH]nnc5C4)nn3CC2)cc1` [Example 19, 3-(4-methoxyphenyl)-1-[2-(1,4,6,7-tetrahydrotriazolo[4,5-c]pyridine-5-carbonyl)-4,5,7,8-tetrahydropyrazolo[1,5-d][1,4]diazepin-6-yl]propan-1-one], the figure is 151 nM; as for `O=C(CCc1ccc(OC(F)(F)F)cc1)N1CCc2nc(C(=O)N3CCc4[nH]nnc4C3)nn2CC1` [Example 20, 1-[2-(1,4,6,7-tetrahydrotriazolo[4,5-c]pyridine-5-carbonyl)-5,6,8,9-tetrahydro-[1,2,4]triazolo[1,5-d][1,4]diazepin-7-yl]-3-[4-(trifluoromethoxy)phenyl]propan-1-one], 6 nM; as for `O=C(CCc1ccc(OC(F)(F)F)c(F)c1)N1CCc2nc(C(=O)N3CCc4[nH]nnc4C3)nn2CC1` [Example 21, 3-[3-fluoro-4-(trifluoromethoxy)phenyl]-1-[2-(1,4,6,7-tetrahydrotriazolo[4,5-c]pyridine-5-carbonyl)-5,6,8,9-tetrahydro-[1,2,4]triazolo[1,5-d][1,4]diazepin-7-yl]propan-1-one], 17 nM. Compound `O=C(CCc1ccc(OC(F)(F)F)c(Cl)c1)N1CCc2cc(C(=O)N3CCc4[nH]nnc4C3)nn2CC1` [Example 22, 3-[3-chloro-4-(trifluoromethoxy)phenyl]-1-[2-(1,4,6,7-tetrahydrotriazolo[4,5-c]pyridine-5-carbonyl)-4,5,7,8-tetrahydropyrazolo[1,5-d][1,4]diazepin-6-yl]propan-1-one] gave a 50% inhibitory concentration (IC50) of 18 nM.

The record behind these values is US10669285B2, “Condensed [1,4] diazepine compounds as autotaxin (ATX) and lysophosphatidic acid (LPA) production inhibitors” (Hoffmann-La Roche Inc., priority 2014, dated 2020).
